Molecular target: T1, APOL1 (Homo sapiens, UniProt O14791)
T1 sequence (O14791 1-398 S342G/I384M): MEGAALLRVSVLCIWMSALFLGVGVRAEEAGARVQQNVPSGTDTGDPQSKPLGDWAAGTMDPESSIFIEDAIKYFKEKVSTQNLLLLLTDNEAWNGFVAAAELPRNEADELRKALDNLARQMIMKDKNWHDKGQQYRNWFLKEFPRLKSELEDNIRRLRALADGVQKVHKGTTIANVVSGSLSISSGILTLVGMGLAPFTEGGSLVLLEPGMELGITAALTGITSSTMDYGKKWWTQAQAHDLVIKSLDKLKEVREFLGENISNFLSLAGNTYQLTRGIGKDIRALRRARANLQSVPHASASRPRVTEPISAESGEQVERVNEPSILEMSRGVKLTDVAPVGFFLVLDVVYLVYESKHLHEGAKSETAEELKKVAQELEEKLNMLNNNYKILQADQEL
Experiment: MultiTox-Fluor Multiplex Cytotoxicity Assay in tet-inducible APOL1 T-REx-HEK293 cells (cell rescue, ratio of dead to live cells)
Assay type: cell-based
Conditions: tet-inducible transgenic APOL1 T-REx-HEK293 cell lines, 50 ng/mL tet, 24 hours; read-out: IP50 (i.e., IC50 for cell proliferation)
Summary of the method: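 T-REx-HEK293 cells with tet-inducible APOL1 were treated with compound (10 μM top, 10-point 3-fold dilution, duplicate) plus 50 ng/mL tetracycline for 24 h at 37° C, in DMEM with 2% tet-free FBS. MultiTox-Fluor protease signals gave a dead/live ratio, normalized to no tet (100% viability) and tet alone (0%).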

`CCc1cc2c(s1)CCO[C@@]21CCN(Cc2cn(CC(CC)(CC)OC)nn2)[C@@H](C)C1` [Compound 97] gave an IC50 of less than 100 nM.
`CCc1cc2c(s1)CCO[C@@]21CCN(Cc2cn(CC(C)(C)OCCO)nn2)[C@@H](C)C1` [Compound 98] gave an IC50 of 100 to 500 nM.
In the case of `CCc1cc2c(s1)CCO[C@@]21CCN(Cc2cn(CC(O)CN3CCCC3=O)nn2)[C@@H](C)C1` (stereo partly shown) [Compound 99], the IC50 is reported as less than 100 nM.
Compound `CCc1cc2c(s1)CCO[C@@]21CCN(Cc2cn(CC(C)(C)C3CCOCC3)nn2)[C@@H](C)C1` [Compound 100] has an IC50 of 100 to 500 nM.
`CCc1cc2c(s1)CCOC21CCN(Cc2cn(CC(C)(CO)COC)nn2)C(C)C1` (stereo not shown) [Compound 101] was tested, and the IC50 was 100 to 500 nM.
Work on `CCc1cc2c(s1)CCOC21CCN(Cc2cn(CC3(C)COCCO3)nn2)C(C)C1` (stereo not shown) [Compound 102] yielded an IC50 of less than 100 nM.
`CCc1cc2c(s1)CCO[C@@]21CCN(Cc2cn(CC3(C4(O)CCOCC4)CC3)nn2)[C@@H](C)C1` [Compound 103] was tested, and the IC50 was 100 to 500 nM.
For `CCc1cc2c(s1)CCO[C@@]21CCN(Cc2cn(CC3(OCCO)CCC3)nn2)[C@@H](C)C1` [Compound 104], the IC50 was 100 to 500 nM.
In the case of `CCc1cc2c(s1)CCO[C@@]21CCN(Cc2cn(CC3(C4CCOCC4)CC3)nn2)[C@@H](C)C1` [Compound 105], the IC50 is reported as 500 to 1000 nM.
In the case of `CCc1cc2c(s1)CCO[C@@]21CCN(Cc2cn(CC3(CO)CCOC3)nn2)[C@@H](C)C1` (stereo partly shown) [Compound 106], the IC50 is reported as 100 to 500 nM.
With `CCc1cc2c(s1)CCOC21CCN(Cc2cn(CC(CO)C(C)C)nn2)C(C)C1` (stereo not shown) [Compound 107] the IC50 was less than 100 nM.
Compound `CCc1cc2c(s1)CCO[C@@]21CCN(Cc2cn(CC(C)COC)nn2)[C@@H](C)C1` (stereo partly shown) [Compound 108] has an IC50 of 100 to 500 nM.
`CCc1cc2c(s1)CCO[C@@]21CCN(Cc2cn(CC(C)(C)C(C)(C)O)nn2)[C@@H](C)C1` [Compound 109] was tested, and the IC50 was 100 to 500 nM.
`CCc1cc2c(s1)CCO[C@@]21CCN(Cc2cn(CC(C)(CO)OC)nn2)[C@@H](C)C1` (stereo partly shown) [Compound 110] was tested, and the IC50 was 100 to 500 nM.
Compound `CCc1cc2c(s1)CCO[C@@]21CCN(Cc2cn(CC(C)(C)C3(O)CCOCC3)nn2)[C@@H](C)C1` [Compound 111] has an IC50 of 100 to 500 nM.
Work on `CCc1cc2c(s1)CCO[C@@]21CCN(Cc2cn(CC(O)Cc3ccc(F)cc3)nn2)[C@@H](C)C1` (stereo partly shown) [Compound 112] yielded an IC50 of less than 100 nM.
In the case of `CCc1cc2c(s1)CCO[C@@]21CCN(Cc2cn(C[C@H](O)C(C)(C)C)nn2)[C@@H](C)C1` [Compound 113], the IC50 is reported as less than 100 nM.
Work on `CCc1cc2c(s1)CCO[C@@]21CCN(Cc2cn(CC3(C)CCOCC3)nn2)[C@@H](C)C1` [Compound 114] yielded an IC50 of 100 to 500 nM.
With `CCc1cc2c(s1)CCOC21CCN(Cc2cn(CC(CC)CO)nn2)C(C)C1` (stereo not shown) [Compound 115] the IC50 was less than 100 nM.
Work on `CCc1cc2c(s1)CCOC21CCN(Cc2cn(CC3CC(=O)N(CCOC)C3)nn2)C(C)C1` (stereo not shown) [Compound 116] yielded an IC50 of 100 to 500 nM.
Work on `CCc1cc2c(s1)CCOC21CCN(Cc2cn(CC(O)C3CCCO3)nn2)C(C)C1` (stereo not shown) [Compound 117] yielded an IC50 of less than 100 nM.
`CCc1cc2c(s1)CCO[C@@]21CCN(Cc2cn(CC3(C)COC3)nn2)[C@@H](C)C1` [Compound 118] was tested, and the IC50 was 100 to 500 nM.
In the case of `CCc1cc2c(s1)CCOC21CCN(Cc2cn(CC3(OCCO)CCOC3)nn2)C(C)C1` (stereo not shown) [Compound 119], the IC50 is reported as less than 100 nM.
Work on `CCc1cc2c(s1)CCO[C@@]21CCN(Cc2cn(CC(C)(C)C(C)O)nn2)[C@@H](C)C1` (stereo partly shown) [Compound 120] yielded an IC50 of 100 to 500 nM.
For `CCc1cc2c(s1)CCO[C@@]21CCN(Cc2cn(CC(CO)CC3CCOCC3)nn2)[C@@H](C)C1` (stereo partly shown) [Compound 121], the IC50 was less than 100 nM.
In the case of `CCc1cc2c(s1)CCO[C@@]21CCN(Cc2cn(CC(F)(F)C3(O)CCOCC3)nn2)[C@@H](C)C1` [Compound 122], the IC50 is reported as 100 to 500 nM.
`CCc1cc2c(s1)CCOC21CCN(Cc2cn(CC(O)C(C)(C)O)nn2)C(C)C1` (stereo not shown) [Compound 123] was tested, and the IC50 was less than 100 nM.
`CCc1cc2c(s1)CCOC21CCN(Cc2cn(CC(O)C(C)(C)O)nn2)C(C)C1` (stereo not shown) [Compound 124] showed an IC50 of less than 100 nM.
In the case of `CCc1cc2c(s1)CCOC21CCN(Cc2cn(CC(O)C(C)(C)O)nn2)C(C)C1` (stereo not shown) [Compound 125], the IC50 is reported as less than 100 nM.
Compound `CCc1cc2c(s1)CCO[C@@]21CCN(Cc2cn(C[C@H]3C[C@@H](O)C3)nn2)[C@@H](C)C1` [Compound 126] has an IC50 of less than 100 nM.
With `CCc1cc2c(s1)CCO[C@@]21CCN(Cc2cn(C3(CO)CC3)nn2)[C@@H](C)C1` [Compound 127] the IC50 was 500 to 1000 nM.
`CCc1cc2c(s1)CCO[C@@]21CCN(Cc2cn(C3CC(CO)N3)nn2)[C@@H](C)C1` (stereo partly shown) [Compound 128] was tested, and the IC50 was 100 to 500 nM.
With `CCc1cc2c(s1)CCO[C@@]21CCN(Cc2cn(CCOC)nn2)[C@@H](C)C1` [Compound 129] the IC50 was 100 to 500 nM.
In the case of `CCc1cc2c(s1)CCO[C@@]21CCN(Cc2cn(C(C)COC)nn2)[C@@H](C)C1` (stereo partly shown) [Compound 130], the IC50 is reported as 100 to 500 nM.
`CCc1cc2c(s1)CCO[C@@]21CCN(Cc2cn(CC3CCOC3)nn2)[C@@H](C)C1` (stereo partly shown) [Compound 131] showed an IC50 of 100 to 500 nM.
Compound `CCc1cc2c(s1)CCO[C@@]21CCN(Cc2cn([C@H]3C[C@@](C)(O)C3)nn2)[C@@H](C)C1` [Compound 132] has an IC50 of 100 to 500 nM.
`CCc1cc2c(s1)CCOC21CCN(Cc2cn(CC(O)CC)nn2)C(C)C1` (stereo not shown) [Compound 133] was tested, and the IC50 was less than 100 nM.
In the case of `CCc1cc2c(s1)CCO[C@@]21CCN(Cc2cn(CC(C)(CO)CO)nn2)[C@@H](C)C1` [Compound 134], the IC50 is reported as less than 100 nM.
`CCc1cc2c(s1)CCO[C@@]21CCN(Cc2cn(CC(C)(C)CO)nn2)[C@@H](C)C1` [Compound 135] showed an IC50 of 100 to 500 nM.
`CCc1cc2c(s1)CCO[C@@]21CCN(Cc2cn(CC3COCCO3)nn2)[C@@H](C)C1` (stereo partly shown) [Compound 136] gave an IC50 of less than 100 nM.
`CCc1cc2c(s1)CCOC21CCN(Cc2cn(CC(COC)OC)nn2)C(C)C1` (stereo not shown) [Compound 137] showed an IC50 of less than 100 nM.
In the case of `CCc1cc2c(s1)CCOC21CCN(Cc2cn(CC(O)COC)nn2)C(C)C1` (stereo not shown) [Compound 138], the IC50 is reported as less than 100 nM.
`CCc1cc2c(s1)CCO[C@@]21CCN(Cc2cn(CC(CO)OC)nn2)[C@@H](C)C1` (stereo partly shown) [Compound 139] showed an IC50 of less than 100 nM.
`CCc1cc2c(s1)CCO[C@@]21CCN(Cc2cn(C[C@@H](C)O)nn2)[C@@H](C)C1` [Compound 140] gave an IC50 of less than 100 nM.
With `CCc1cc2c(s1)CCO[C@@]21CCN(Cc2cn(C[C@H](C)O)nn2)[C@@H](C)C1` [Compound 141] the IC50 was 100 to 500 nM.
`CCc1cc2c(s1)CCO[C@@]21CCN(Cc2cn(C[C@H]3C[C@H](O)C3)nn2)[C@@H](C)C1` [Compound 142] was tested, and the IC50 was 100 to 500 nM.
`CCc1cc2c(s1)CCOC21CCN(Cc2cn(CC(O)CO)nn2)C(C)C1` (stereo not shown) [Compound 143] was tested, and the IC50 was less than 100 nM.
Work on `CCc1cc2c(s1)CCO[C@@]21CCN(Cc2cn([C@H]3CC[C@@H]3O)nn2)[C@@H](C)C1` [Compound 144] yielded an IC50 of 100 to 500 nM.
Work on `CCc1cc2c(s1)CCO[C@@]21CCN(Cc2cn([C@H]3C[C@@H](OC)C3)nn2)[C@@H](C)C1` [Compound 145] yielded an IC50 of less than 100 nM.
Work on `CCc1cc2c(s1)CCO[C@@]21CCN(Cc2cn(CC3(O)COC3)nn2)[C@@H](C)C1` [Compound 146] yielded an IC50 of less than 100 nM.
Compound `CCc1cc2c(s1)CCO[C@@]21CCN(Cc2cn(C3(CO)COC3)nn2)[C@@H](C)C1` [Compound 147] has an IC50 of 500 to 1000 nM.
For `CCc1cc2c(s1)CCOC21CCN(Cc2cn(C(C)CC(N)=O)nn2)C(C)C1` (stereo not shown) [Compound 148], the IC50 was 100 to 500 nM.
For `CCc1cc2c(s1)CCO[C@@]21CCN(Cc2cn(C(C)(C)C(N)=O)nn2)[C@@H](C)C1` [Compound 149], the IC50 was 500 to 1000 nM.
`CCc1cc2c(s1)CCO[C@@]21CCN(Cc2cn(CC3(CO)CC3)nn2)[C@@H](C)C1` [Compound 150] gave an IC50 of 100 to 500 nM.
Work on `CCc1cc2c(s1)CCO[C@@]21CCN(Cc2cn([C@H]3C[C@H](O)C3)nn2)[C@@H](C)C1` [Compound 151] yielded an IC50 of less than 100 nM.

Reference: US20250171459A1, “2-METHYL-4',5'-DIHYDROSPIRO[PIPERIDINE-4,7'-THIENO[2,3-C]PYRAN] DERIVATIVES AS INHIBITORS OF APOL1 AND METHODS OF USING SAME” (Vertex Pharmaceuticals Incorporated, priority 2022, published 2025)
